Measurements as given in PMC9404985, “Development of Dicationic Bisguanidine-Arylfuran Derivatives as Potent Agents against Gram-Negative Bacteria” (Antibiotics, 2022).

Assays:
[1] = system: Enterobacter hormaechei CCUG # 58962; experiment: MIC of established antibiotics, micro-broth dilution; settings: CCUG58962, read-out: MIC Enterobacter hormaechei CCUG 58962
[2] = system: Escherichia coli CCUG # 17620; experiment: as above; settings: CCUG17620, read-out: MIC Escherichia coli CCUG 17620
[3] = system: Klebsiella pneumoniae CCUG # 58547; experiment: as above; settings: CCUG58547, read-out: MIC Klebsiella pneumoniae CCUG 58547
[4] = system: Escherichia coli CCUG # 67180; experiment: as above; settings: CCUG67180, read-out: MIC Escherichia coli CCUG 67180
[5] = system: Acinetobacter baumannii CCUG # 57035; experiment: as above; settings: CCUG57035, read-out: MIC Acinetobacter baumannii CCUG 57035
[6] = system: Pseudomonas aeruginosa CCUG # 59347; experiment: as above; settings: CCUG59347, read-out: MIC Pseudomonas aeruginosa CCUG 59347
[7] = system: Pseudomonas aeruginosa CCUG # 17619; experiment: as above; settings: CCUG17619, read-out: MIC Pseudomonas aeruginosa CCUG 17619
[8] = system: Klebsiella pneumoniae CCUG # 225T; experiment: as above; settings: read-out: MIC Klebsiella pneumoniae CCUG 225T
[9] = system: Acinetobacter baumannii CCUG # 57250; experiment: as above; settings: CCUG57250, read-out: MIC Acinetobacter baumannii CCUG 57250
[10] = system: E. coli MG1655 (CGSC #6300); experiment: Antibacterial resazurin assay, laboratory strain; settings: for EC50 / EC90: Escherichia coli, MG1655, 18 h; for EC50: read-out: Eco EC50; for EC90: read-out: Eco EC90; for Selectivity index E. coli: mean of MCF-7 and HepG2 EC50 over bacterial EC50, laboratory strain
[11] = system: P. carotovorum (NBRC/ATCC #3380); experiment: Antibacterial resazurin assay, laboratory strain; settings: for EC50 / EC90: Pectobacterium carotovorum, ATCC3380, 18 h; for EC50: read-out: Pcar EC50, laboratory strain, 18 h, 37 °C, AlamarBlue; for EC90: read-out: Pcar EC90; for Selectivity index P. carotovorum: mean of MCF-7 and HepG2 EC50 over bacterial EC50, laboratory strain
[12] = system: P. putida (NBRC/ATCC #100650); experiment: Antibacterial resazurin assay, laboratory strain; settings: for EC50 / EC90: Pseudomonas putida, ATCC100650, 18 h; for EC50: read-out: Ppu EC50, laboratory strain, 18 h, 37 °C, AlamarBlue; for EC90: read-out: Ppu EC90; for Selectivity index P. putida: mean of MCF-7 and HepG2 EC50 over bacterial EC50, laboratory strain
[13] = system: P. caledonica (NBRC/ATCC #102488); experiment: Antibacterial resazurin assay, laboratory strain; settings: for EC50 / EC90: Paraburkholderia caledonica, ATCC102488, 18 h; for EC50: read-out: Pcal EC50; for EC90: read-out: Pcal EC90; for Selectivity index P. caledonica: mean of MCF-7 and HepG2 EC50 over bacterial EC50, laboratory strain
[14] = system: B. subtilis (NBRC/ATCC #111470); experiment: Antibacterial resazurin assay, laboratory strain; settings: for EC50 / EC90: Bacillus subtilis, ATCC111470, 18 h; for EC50: read-out: Bsu EC50; for EC90: read-out: Bsu EC90; for Selectivity index B. subtilis: mean of MCF-7 and HepG2 EC50 over bacterial EC50, laboratory strain
[15] = Cytotoxicity assay (PrestoBlue) HepG2; type: cell-based; settings: human, HepG2 cells (hepatoma cell line), 24 h incubation
Method: (§1) The cytotoxicity levels of all compounds were evaluated against human Michigan Cancer Foundation-7 (MCF-7) and Hepatoma G2 cell line (HepG2) cell lines. MCF-7 is an extensively characterized breast cancer cell line isolated in 1970 [41], while HepG2 cells were derived from a hepatoma in 1975 [42]. Both cell lines grow robustly during in vitro culture and have been widely used for cytotoxicity testing. Cells of hepatic origin, such as HepG2, are of particular relevance for toxicity studies as many drugs accumulate in the liver during metabolic conversion. Cells were grown in Dulbecco’s Modified Eagle Medium supplemented with 10% fetal calf serum and kept in exponential growth, as previously reported. Before the assay, cells were reseeded into 96-well microtiter plates at a density allowing continued exponential growth and let to settle for 24 h. The compounds were added from a stock solution in DMSO, for a final concentration of 0.3% v/v of the solvent in the culture medium. After 24 h of incubation in presence of the compound, cell viability was assayed using PrestoBlue Cell Viability Reagent (resazurin-based solution, ThermoFisher, Waltham, MA, USA) according to the manufacturer’s instructions. […] Each assay contained a DMSO control at the equivalent starting concentration, positive control (uninhibited cell growth) and negative control (cell medium only). Survival was expressed as percentage of the solvent-only control. […] The Selectivity Index (SI) for each compound and bacterial strain was calculated as the ratio between the mean of the EC50 values for the two human cell lines and the EC50 for the bacterial strain in question ((EC50 MCF-7 + EC50 HepG2)/2)/EC50 bacterial strain).

[16] = Cytotoxicity assay (PrestoBlue) MCF-7; type: cell-based; settings: human, MCF-7 cells (breast cancer cell line), 24 h incubation
Method: as §1

| Compound | EC50 [10] | EC90 [10] | Selectivity index E. coli [10] | EC50 [11] | EC90 [11] | Selectivity index P. carotovorum [11] | EC50 [12] | EC90 [12] | Selectivity index P. putida [12] | EC50 [13] | EC90 [13] | EC50 [14] | EC90 [14] | EC50 at 24 h [15] | EC50 at 24 h [16] | Selectivity index P. caledonica [13] | Selectivity index B. subtilis [14] | also measured |
| --- | --- | --- | --- | --- | --- | --- | --- | --- | --- | --- | --- | --- | --- | --- | --- | --- | --- | --- |
| O=C(O)c1cn(C2CC2)c2cc(N3CCNCC3)c(F)cc2c1=O [Ciprofloxacin] | – | – | – | – | – | – | – | – | – | – | – | – | – | – | – | – | – | MIC [1]: 0.1 µM; MIC [2]: 0.025 µM; MIC [3]: 190 µM; MIC [4]: 190 µM; MIC [5]: 200 µM; MIC [6]: 100 µM; MIC [7]: 1.5 to 3 µM; MIC [8]: 0.18 µM; MIC [9]: 200 µM |
| N=C(N)Nc1ccc(-c2ccc(-c3ccc(NC(=N)N)cc3C(F)(F)F)o2)c(C(F)(F)F)c1 [Compound 5, 2,5-Bis(4-guanidino-2-trifluoromethylphenyl)furan] | 29.4 µM | 59.1 µM | 1.6 | 185 µM | 233 µM | 0.2 | 290 µM | 319 µM | 0.2 | > 300 µM | > 300 µM | > 300 µM | > 300 µM | 69 µM | 23.2 µM | – | – | – |
| N=C(N)Nc1ccc2c(c1)CCN2C(=O)c1ccc(-c2ccccc2Cl)o1 [Compound 19, (5-(2-chlorophenyl)furan-2-yl)(5-guanidinoindolin-1-yl)methanone] | 0.5 µM | 2.5 µM | 51.2 | 87.1 µM | 130 µM | 0.3 | 75 µM | 84.9 µM | 0.3 | 96.3 µM | 287 µM | 14.5 µM | 25.9 µM | 24.8 µM | 26.4 µM | 0.3 | 1.8 | – |
| Nc1c(Nc2ccc(-c3ccc(-c4ccc(Nc5c(N)c(=O)c5=O)cc4Cl)o3)c(Cl)c2)c(=O)c1=O [Compound 11, 2,5-Bis(2-chloro-4-((3,4-dioxo-2-(amino)cyclobut-1-en-1-yl)amino)phenyl)furan] | > 300 µM | > 300 µM | – | > 300 µM | > 300 µM | – | > 300 µM | > 300 µM | – | 19 µM | 60.1 µM | > 300 µM | > 300 µM | 183 µM | 508 µM | 18.2 | – | – |
| N=C(N)Nc1ccc(-c2ccc(C(=O)N3CCc4ccccc43)o2)c(Cl)c1 [Compound 20, (5-(2-chloro-4-guanidinophenyl)furan-2-yl)(indolin-1-yl)methanone] | 61.7 µM | 106 µM | 0.5 | 159 µM | 187 µM | 0.2 | > 300 µM | > 300 µM | – | 129 µM | > 300 µM | 24.5 µM | 38.4 µM | 28.5 µM | 37.8 µM | 0.3 | 1.4 | – |
| N#Cc1cc(NC(=N)N)ccc1-c1ccc(-c2ccc(NC(=N)N)cc2C#N)o1 [Compound 7, 2,5-Bis(2-cyano-4-guanidinophenyl)furan] | 59.3 µM | 350 µM | 1.1 | 212 µM | 268 µM | 0.3 | 24.5 µM | 51.5 µM | 2.5 | > 300 µM | > 300 µM | 146 µM | 562 µM | 78.9 µM | 46 µM | – | 0.4 | – |
| N=C(N)Nc1ccc2c(c1)CCN2C(=O)c1ccc(-c2ccc(NC(=N)N)cc2C(F)(F)F)o1 [Compound 18, (5-(2-trifluoromethy-4-guanidinophenyl)furan-2-yl)(5-guanidinoindolin-1-yl)methanone] | 42.3 µM | 58.3 µM | 7.5 | 94.6 µM | 120 µM | 3.3 | 10.1 µM | 22.2 µM | 31.3 | 12.6 µM | 176 µM | 9.6 µM | 13.6 µM | 508 µM | 123 µM | 25.1 | 32.9 | – |
| Nc1c(Nc2ccc(-c3ccc(-c4ccc(Nc5c(N)c(=O)c5=O)cc4C(F)(F)F)o3)c(C(F)(F)F)c2)c(=O)c1=O [Compound 14, 2,5-Bis(2-trifluoromethyl-4-((3,4-dioxo-2-(amino)cyclobut-1-en-1-yl)amino)phenyl)furan] | > 300 µM | > 300 µM | – | > 300 µM | > 300 µM | – | > 300 µM | > 300 µM | – | 90.4 µM | 305 µM | > 300 µM | > 300 µM | 185 µM | 173 µM | 2.0 | – | – |
| Cc1cc(Nc2c(N)c(=O)c2=O)ccc1-c1ccc(-c2ccc(Nc3c(N)c(=O)c3=O)cc2C)o1 [Compound 13, 2,5-Bis(2-methyl-4-((3,4-dioxo-2-(amino)cyclobut-1-en-1-yl)amino)phenyl)furan] | > 300 µM | > 300 µM | – | > 300 µM | > 300 µM | – | > 300 µM | > 300 µM | – | > 300 µM | > 300 µM | > 300 µM | > 300 µM | 137 µM | > 1000 µM | – | – | – |
| Cc1nc(NC(=N)N)ccc1-c1ccc(-c2ccc(NC(=N)N)nc2C)o1 [Compound 9, 2,5-Bis(6-guanidino-2-methylpyridin-3-yl)furan] | 547 µM | > 900 µM | 1.0 | > 300 µM | > 300 µM | – | > 300 µM | > 300 µM | – | 84.8 µM | 213 µM | 154 µM | 246 µM | > 100 µM | > 1000 µM | 6.5 | 3.6 | – |
| Nc1c(Nc2ccc(-c3ccc(-c4ccc(Nc5c(N)c(=O)c5=O)cc4)o3)cc2)c(=O)c1=O [Compound 12, 2,5-Bis(4-((3,4-dioxo-2-(amino)cyclobut-1-en-1-yl)amino)phenyl)furan] | > 300 µM | > 300 µM | – | > 300 µM | > 300 µM | – | > 300 µM | > 300 µM | – | > 300 µM | > 300 µM | > 300 µM | > 300 µM | > 1000 µM | > 1000 µM | – | – | – |
